The target in one experiment is HDAC2 (Homo sapiens, UniProt Q92769). Briefly: HDAC enzyme inhibition assay. The experiment is classed as biochemical. On the set-up: purchased BPS Bioscience 50052. How it is done:
Bio-Rad) to Immobilon-FL PVDF membranes (Catalog# IPFL00005, Mill ipore Merck, Burlington, MA, USA) at 1.0 A for 30 min and treated with 5% milk-powder solution for 1 h at room temperature […]
Signaling Technology) antibody solutions in 1:1000 –1:8000 dilutions at 4 °C overnight. […]
Significance testing was performed with a one -way analysis of variance (ANOVA). Dunnett’s post -hoc test was employed to obtain significance levels of each mean compared to a reference mean value.
2.7. HDAC Enzyme Inhibition Assay […]
[4] For test compounds and controls, serial dilutions of the respective DMSO stock solution in DMSO were prepared, and 1.0 μL /well of this serial dilution were transferred […]
into OptiPlate-96 black microplates (PerkinElmer, Waltham, […], USA). A volume of 4 µL/well assay […]
BSA) was added. In the case of HDAC1, 2, and 6, a volume of 35 μL/well of the fluorogenic substrate […]
The total assay volume of 50 μL (max. 2 % DMSO) was incubated at 37 °C for 90 min. Subsequently, 50 μL /well of trypsin (0.4 mg/mL) in trypsin buffer (50 mM Tris−HCl, pH 8.0, 100 mM NaCl) was added, followed by additional 30 min of incubation at […]
OPTIMA microplate reader (BMG labtech, Ortenburg, Germany). The half maximal inhibitory concentration (IC50) was determined by plotting dose response curves and nonlinear regression with GraphPad Prism (GraphPad Software).
2.8. MTT Cell Viability Assay […]

In the next experiment the target is HDAC1 (Homo sapiens, UniProt Q13547). Briefly: Immunoblot HDAC1 degradation in MM.1S cell lysates. Type of experiment: cell-based. On the set-up: endogenous in cells; host or cells: MM.1S. To be noted: MM1.S, MM.1S cells, 24 h, read-out: maximal degradation (Dmax) HDAC1. The method, then:
Figure 6 Examination of HDAC isoform degradation. MM.1S cells were treated with the indicated compounds (10 μM) or vehicle (DMSO) for 24 h. HDAC1, 2, 4, and 6 levels were analyzed by immunoblotting. (A) Representative images from a total of n=3 biological replicates.
2.5. Aqueous Stability Assay
For stability testing in aqueous solution, a 10-fold concentrated DMSO solution of the respective compounds was diluted in DPBS to generate a 10 µM concentration (final DMSO content of 10%).
Samples of the aqueous solutions were taken after 0, 24, 48, and 72 h at room temperature and the amounts of the parental compound and potential fragments were monitored by HPLC gradient A (see 3.1 General Information). […]
Afterwards, proteins were transferred with the Trans -Blot Turbo Transfer System (Catalog# 1704150, Bio-Rad) to Immobilon-FL PVDF membranes (Catalog# IPFL00005, Mill ipore Merck, Burlington, MA, USA) at 1.0 A for 30 min and treated with 5% milk-powder solution for 1 h at room temperature under slight agitation. […] The ChemiDoc XRS+ System (Catalog# 1708265 , Bio-Rad) was used for detection and Image Lab Software 6.1 (Bio-Rad) for quantification. […]
In vitro inhibitory activities against HDAC1, 2 , and 6 were measured using a previously published protocol.[3] In vitro inhibitory activities against HDAC4 were measured using a previously published protocol with slight modifications. […]
(A western blot detects proteins with antibodies after separation by electrophoresis.)

The structures appear in SMILES notation.

Sequence of HDAC2 (Q92769 whole entry): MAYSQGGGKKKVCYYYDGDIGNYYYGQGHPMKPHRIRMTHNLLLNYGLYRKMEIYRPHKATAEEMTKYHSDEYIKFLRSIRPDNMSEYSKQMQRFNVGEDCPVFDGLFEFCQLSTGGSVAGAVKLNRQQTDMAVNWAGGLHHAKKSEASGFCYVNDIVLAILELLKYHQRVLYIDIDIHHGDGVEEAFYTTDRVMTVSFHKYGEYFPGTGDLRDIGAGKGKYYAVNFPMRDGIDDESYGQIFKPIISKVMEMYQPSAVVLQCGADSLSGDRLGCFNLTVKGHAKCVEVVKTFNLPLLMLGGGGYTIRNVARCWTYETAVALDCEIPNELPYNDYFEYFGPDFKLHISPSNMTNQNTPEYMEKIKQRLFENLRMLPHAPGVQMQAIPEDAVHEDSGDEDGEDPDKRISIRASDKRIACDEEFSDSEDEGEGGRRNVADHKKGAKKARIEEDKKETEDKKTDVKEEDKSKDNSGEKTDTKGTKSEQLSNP
Sequence of HDAC1 (Q13547 whole entry, canonical isoform): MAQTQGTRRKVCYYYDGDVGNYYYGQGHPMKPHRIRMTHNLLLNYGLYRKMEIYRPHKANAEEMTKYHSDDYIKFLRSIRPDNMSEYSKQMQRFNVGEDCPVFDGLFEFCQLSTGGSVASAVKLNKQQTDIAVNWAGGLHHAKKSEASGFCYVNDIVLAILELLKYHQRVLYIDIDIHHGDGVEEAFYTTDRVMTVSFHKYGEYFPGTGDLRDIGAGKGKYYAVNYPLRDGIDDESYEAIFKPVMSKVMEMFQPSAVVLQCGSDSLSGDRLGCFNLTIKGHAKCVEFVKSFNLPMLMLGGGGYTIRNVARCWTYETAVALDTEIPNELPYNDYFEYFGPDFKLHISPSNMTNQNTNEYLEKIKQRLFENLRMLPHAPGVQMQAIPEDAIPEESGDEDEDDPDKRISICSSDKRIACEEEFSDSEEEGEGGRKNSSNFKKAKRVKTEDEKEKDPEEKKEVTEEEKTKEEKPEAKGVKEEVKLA

A word on the IC50: it is the concentration needed to halve the response being measured. Read a high IC50 as weaker potency in that assay. Usually Dmax stands for the greatest extent of degradation seen. In the case of `O=C(CCCCCCNC(=O)c1ccc(NC(=O)CCCCCCCCCCCN(C(=O)CCl)C(C(=O)NCc2ccccc2)c2ccc(Cl)c(Cl)c2)cc1)NO` (stereo not shown) [Compound 1j], the IC50 on HDAC2 came to 2150 ± 110 nM. Further, the Dmax at 10 µM at HDAC1 was 90%.

`O=C(CCCCCCNC(=O)c1ccc(N(C(=O)CCl)C(C(=O)NCc2ccccc2)c2ccc(Cl)c(Cl)c2)cc1)NO` (stereo not shown) [Compound 2]: the IC50 at HDAC2 was 298 ± 11 nM. Moreover, the maximal degradation (Dmax) at 10 µM at HDAC1 was 74%.

Values taken from article PMC12091851, “Replacing a Cereblon Ligand by a DDB1 and CUL4 Associated Factor 11 (DCAF11) Recruiter Converts a Selective Histone Deacetylase 6 PROTAC into a Pan‐Degrader” (Chemmedchem, 2025).
